{"source": "patent US20260347843A1", "about": "“NERVOUS SYSTEM DELIVERY ENHANCER” (priority 2022, published 2026)", "key": {"Malat1 RNA": {"tested_on": "Malat1 RNA", "assay": "Malat1 RNA expression level after intraventricular administration (target gene suppression effect)", "assay_type": "in vivo, mouse", "conditions": "7 days", "description": "(§1) Seven-week-old female ICR mice anesthetized with 2.5 to 4% isoflurane were fixed to a brain stereotaxic apparatus. Then, skin between the ears was cut open 2 to 3 cm anteroposteriorly, and perforated 1 mm leftward and 0.2 mm posteriorly from the bregma using a 1 mm diameter drill. A Hamilton syringe was filled with the nucleic acid agent. Through the perforated site, a needle was inserted approximately 3 mm deep. The ASO at a dose of 0.95 nmol (5 μg) per mouse was administered into the left lateral ventricle (n=4 to 7/group). The group to which ASO and TGN-073 were coadministered (hereinafter, the group is referred to as the “ASO/TGN-073 coadministration group”) means that ASO mixed with TGN-073 was administered. The group to which only ASO was administered (hereinafter, the group is referred to as the “ASO single administration group”) means that only ASO was administered without being mixed with TGN-073. The dose of TGN-073 in the ASO/TGN-073 coadministration group was 0.25 mg per mouse. After the intraventricular administration, the skin was sutured with a nylon thread. In addition, mice to which only TGN-073 was administered (hereinafter, the mice are referred to as the “TGN-073 administration group”) and mice to which only PBS was administered (hereinafter, the mice are referred to as the “PBS administration group”) were produced as controls.\n(§2) A left hippocampus was extirpated from each of the mice at 3 hours or 7 days after the intraventricular administration. Using an IsogenI kit (GeneDesign Inc.), RNA was extracted from the left hippocampus extirpated. A cDNA was synthesized using Transcriptor Universal cDNA Master, DNase (Roche Diagnostics) in accordance with the protocol.\nNext, quantitative RT-PCR was performed with TaqMan (Roche Applied Science). Primers used in quantitative RT-PCR were products designed and manufactured by Thermo Fisher Scientific Inc. (formerly known as Life Technologies Corp.) on the basis of the various numbers of genes. Amplification conditions (temperature and time) were as follows: one cycle—95 °C for 15 seconds, 60 °C for 30 seconds, and 72 °C for 1 second—was repeated 40 times. The ratio of the expression amount of Malat1 RNA to the expression amount of Actb mRNA (internal standard gene) was calculated, and a value standardized with respect to the value of the PBS-treated group was determined as a relative Malat1 RNA level.\nIn this Example, the ASO targeted at Malat1, and used in Example 1 (the ASO described in Table 1) was used. Performed in accordance with Example 1 were: the preparation of a nucleic acid; an in vivo experiment; and the evaluation of the intracerebral ASO concentration (the amount of the nucleic acid delivered to the brain); and the target gene suppression effect. […]"}, "[1]": {"assay": "ASO concentration in mouse nervous tissue after intraventricular administration (quantitative RT-PCR relative to U6 snRNA)", "assay_type": "in vivo", "description": "as §1, §2\nThe intracerebral ASO concentration (the amount of the nucleic acid delivered to the brain) was measured by extracting RNA from the left hippocampus extirpated in the same manner as described above, and performing quantitative RT-PCR using a primer pair for amplifying ASO and TaqMan Small RNA Assay (Roche Applied Science). The intracerebral ASO concentration was obtained by calculating the ASO content relative to U6 snRNA (an internal standard gene). […]"}}, "data": [{"smiles": "O=S(=O)(Nc1ncccc1OCc1ccccc1)c1ccccc1", "note": "[TGN-073, N-(3-benzyloxypyridin-2-yl)-benzene-sulfonamide]", "values": [{"measurement": "Target gene (Malat1) suppression effect in the hippocampus vs ASO single administration", "setting": "Malat1 RNA; coadministered with 2′-O-MOE-modified ASO (1.7 nmol, 12.5 μg)", "value": "an augmentation of the target gene suppression effect"}, {"measurement": "Target gene (Malat1) suppression effect in the hippocampus vs nucleic acid agent alone", "setting": "Malat1 RNA; coadministered with ASO, HDO or Chol-HDO (0.95 nmol), any of the groups", "value": "marked enhancement"}, {"measurement": "Suppression effect on the Malat1 gene in the hippocampus vs ASO single administration", "setting": "Malat1 RNA; coadministered with Malat1-targeting ASO (0.95 nmol), TGN-073 0.25 mg per mouse", "value": "markedly enhanced"}, {"measurement": "Target gene (Malat1) suppression effect in the lumbar cord portion vs ASO single administration", "setting": "Malat1 RNA; coadministered with Malat1-targeting ASO (1.7 nmol, 12.5 μg)", "value": "marked enhancement"}, {"measurement": "ASO concentration in the central nervous system (hippocampus) vs ASO single administration", "setting": "[1]; Example 7, coadministered with Mapt-targeting ASO of Table 6 (9.4 nmol, 50 μg), TGN-073-mes 0.125 mg/mouse per method, 7 days", "value": "marked enhancement"}, {"measurement": "ASO concentration in the central nervous system (hippocampus) vs nucleic acid agent alone", "setting": "[1]; coadministered with ASO (single-stranded, 0.95 nmol), 7 days", "value": "dramatic increase"}, {"measurement": "ASO concentration in the central nervous system (hippocampus) vs nucleic acid agent alone", "setting": "[1]; coadministered with Chol-HDO (0.95 nmol), 7 days", "value": "dramatic increase"}, {"measurement": "ASO concentration in the central nervous system (hippocampus) vs nucleic acid agent alone", "setting": "[1]; coadministered with HDO (0.95 nmol), 7 days", "value": "dramatic increase"}, {"measurement": "ASO concentration in the hippocampus (amount of nucleic acid delivered to the brain) vs ASO single administration", "setting": "[1]; coadministered with Malat1-targeting ASO (0.95 nmol, 5 μg), TGN-073 0.25 mg per mouse, 3 hours or 7 days", "value": "dramatic increase"}, {"measurement": "ASO concentration in the lumbar cord portion vs ASO single administration", "setting": "[1]; coadministered with Malat1-targeting ASO (1.7 nmol, 12.5 μg), 7 days", "value": "dramatic increase"}]}]}
